These results are taken from patent US8703961B2, “Thiazole derivatives for the treatment of diseases such as cancer” (Merck Patent GmbH, priority 2009, dated 2014).

In one data set the target is T1, TBK1 (Homo sapiens, UniProt Q9UHD2).
T1 construct: purchased
T1 sequence (Q9UHD2 1-729): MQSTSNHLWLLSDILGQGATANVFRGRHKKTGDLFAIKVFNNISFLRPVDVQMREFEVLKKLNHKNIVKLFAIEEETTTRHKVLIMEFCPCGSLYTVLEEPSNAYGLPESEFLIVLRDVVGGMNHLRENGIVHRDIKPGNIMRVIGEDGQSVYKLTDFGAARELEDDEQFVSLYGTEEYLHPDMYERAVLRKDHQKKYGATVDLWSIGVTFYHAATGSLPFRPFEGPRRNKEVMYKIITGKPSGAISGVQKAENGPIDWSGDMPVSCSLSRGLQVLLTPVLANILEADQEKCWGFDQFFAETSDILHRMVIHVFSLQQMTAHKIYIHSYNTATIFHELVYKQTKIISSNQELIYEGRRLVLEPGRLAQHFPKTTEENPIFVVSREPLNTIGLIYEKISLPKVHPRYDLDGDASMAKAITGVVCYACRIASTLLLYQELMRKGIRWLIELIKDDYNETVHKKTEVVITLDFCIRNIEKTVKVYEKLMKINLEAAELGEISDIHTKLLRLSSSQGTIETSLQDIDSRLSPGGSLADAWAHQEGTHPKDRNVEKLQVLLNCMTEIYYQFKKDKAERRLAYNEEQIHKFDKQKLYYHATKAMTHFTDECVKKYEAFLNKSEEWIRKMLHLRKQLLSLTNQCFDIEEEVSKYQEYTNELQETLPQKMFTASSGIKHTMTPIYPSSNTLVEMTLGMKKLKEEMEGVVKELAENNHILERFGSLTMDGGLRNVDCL
The data set is described as follows: filter binding kinase assay. The data set is classed as biochemical. To be noted: derived from % inhibition at 1 μM. On the procedure: All kinase assays were carried out using the Multidrop 384 from Thermo-Fisher at room temperature in a total assay volume of 25.5 μl. 15 μl of an enzyme mix comprising enzyme and substrate in buffer are added to the test batch comprising either 0.5 μl of test substance, DMSO control or empty container. Test substances are pre-incubated in the presence of the enzyme and substrate for 5 minutes before the reaction is initiated by addition of 10 μl of ATP (concentration kinase-dependent of […]). The reaction is terminated by addition of 5 μl of orthophosphoric acid (50 mM). The test containers are then transferred onto P81 Unifilter plates by means of a “Packard Harvester” and dried in air. The dry Unifilter plates are sealed after the addition of MicroScint O, and the radioactivity is determined in a Packard Topcount NXT.

In the case of `CC(C)(C)OC(=O)Nc1ncsc1C#Cc1ccc(F)cc1` [Compound A15, tert-butyl N-{5-[2-(4-fluorophenyl)ethynyl]-1,3-thiazol-4-yl}carbamate], the melting point was in the range of 139 to 144 °C.
On to `Nc1ncc(-c2cnn(C3CCNCC3)c2)cc1-c1nc2[nH]c(-c3ccc(F)cc3)cc2s1` [Compound A31], for which the IC50 on TBK1 was in the range of 10 to 1000 nM.

What is called melting point is the temperature, or range, at which the solid turns liquid. The IC50 is the concentration that inhibits the measured activity by half. Read a high IC50 as weaker potency in that assay.
